Results from the supplement of paper PMC7017272.
± gives the standard deviation of the averaged measurements.

What was measured:
Settings in all cases: treatment time: 3 days
[1] = system: UT-SCC-24A; assay: drug sensitivity score (DSS); higher = more sensitive
Description: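 HNSCC cell lines (500 cells/well, 384-well) were cultured on plastic, on top of (2D) or embedded (3D) in Matrigel or human leiomyoma matrix Myogel (500 ug/mL; Myogel 3D mixed with rat collagen I). Cells were treated for 3 days with 5 ten-fold concentrations of each drug, and viability was read by CellTiter-Glo. Suffixes _1/_2/_3 on drug names are replicates.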

[2] = system: UT-SCC-14; assay: maximal % inhibition of viability relative to DMSO; higher = stronger effect
Procedure, shortened: (§1)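 Viability of HPV-negative HNSCC cell lines was measured by CellTiter-Glo 2.0 luminescence. Cells were seeded at 500 cells/well in 384-well plates on plastic, on Matrigel- or Myogel-coated wells (500 µg/mL), or embedded in Matrigel or Myogel plus rat collagen I, then given compounds at five 10-fold concentrations for 3 days, with signals normalised to vehicle (0.1% DMSO) and cell-killing control wells. Fitting of percent-inhibition dose–response curves in the FIMM pipeline yielded IC50, maximal inhibition and drug sensitivity score.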

[3] = system: UT-SCC-42B; assay: as above
Procedure, shortened: as §1

[4] = system: UT-SCC-81; assay: as above
Procedure, shortened: as §1

[5] = system: UT-SCC-24A; assay: as above
Procedure, shortened: as §1

[6] = system: UT-SCC-106A; assay: drug sensitivity score (DSS); higher = more sensitive; extreme values may be limits of the assay
Procedure, shortened: as §1

[7] = system: UT-SCC-14; assay: as above
Procedure, shortened: as §1

[8] = system: UT-SCC-24B; assay: as above
Procedure, shortened: as §1

[9] = system: UT-SCC-28; assay: as above
Procedure, shortened: as §1

[10] = system: UT-SCC-40; assay: as above
Procedure, shortened: as §1

[11] = system: UT-SCC-42A; assay: as above
Procedure, shortened: as §1

[12] = system: UT-SCC-42B; assay: as above
Procedure, shortened: as §1

[13] = system: UT-SCC-44; assay: as above
Procedure, shortened: as §1

[14] = system: UT-SCC-73; assay: as above
Procedure, shortened: as §1

[15] = system: UT-SCC-81; assay: as above
Procedure, shortened: as §1

[16] = system: UT-SCC-8; assay: as above
Procedure, shortened: as §1

[17] = system: UT-SCC-24A; assay: relative IC50 (midpoint of the fitted curve; maximal inhibition may be below 50%); higher = less potent
Procedure, shortened: as §1

[18] = culture condition: embedded in Matrigel
[19] = culture condition: embedded in Myogel + collagen I
[20] = culture condition: on top of Matrigel
[21] = culture condition: on top of Myogel
[22] = culture condition: plastic 2D (no matrix)

Question: Which results are given for CC(=O)Nc1cccc(-n2c(=O)n(C3CC3)c(=O)c3c(Nc4ccc(I)cc4F)n(C)c(=O)c(C)c32)c1 [Trametinib]?
Answer: drug sensitivity score [1, 18]: 20.2 ± 1.9 DSS; drug sensitivity score [1, 19]: 8.77 ± 2.7 DSS; drug sensitivity score [1, 20]: 18.9 ± 1.5 DSS; drug sensitivity score [1, 21]: 3.8 ± 1.6 DSS; drug sensitivity score [1, 22]: 18.2 ± 2.1 DSS; maximal % inhibition of viability [2, 18]: 43.2 ± 5.3%; maximal % inhibition of viability [2, 19]: 31 ± 10%; maximal % inhibition of viability [2, 20]: 37.1 ± 8.6%; maximal % inhibition of viability [2, 21]: 22.9 ± 3%; maximal % inhibition of viability [2, 22]: 24 ± 8.8%; maximal % inhibition of viability [3, 18]: 67.8 ± 4.4%; maximal % inhibition of viability [3, 20]: 52.2 ± 7.1%; maximal % inhibition of viability [3, 21]: 20.8 ± 7.8%; maximal % inhibition of viability [3, 22]: 28.8 ± 8%; maximal % inhibition of viability [4, 18]: 84.9 ± 2.4%; maximal % inhibition of viability [4, 19]: 24.5 ± 2.6%; maximal % inhibition of viability [4, 20]: 78.6 ± 2.9%; maximal % inhibition of viability [4, 21]: 27.8 ± 11%; maximal % inhibition of viability [4, 22]: 44.1 ± 8.9%; maximal % inhibition of viability [5, 18]: 74.7 ± 4%; maximal % inhibition of viability [5, 19]: 48.6 ± 6.4%; maximal % inhibition of viability [5, 20]: 69.5 ± 5.2%; maximal % inhibition of viability [5, 21]: 33.1 ± 9.5%; maximal % inhibition of viability [5, 22]: 62.4 ± 10%; drug sensitivity score [6, 18]: 15.3 ± 2.4 DSS; drug sensitivity score [6, 19]: 0.6 ± 0.6 DSS; drug sensitivity score [6, 20]: 16.9 ± 1.2 DSS; drug sensitivity score [6, 21]: 3.1 ± 2.4 DSS; drug sensitivity score [6, 22]: 17.3 ± 0.72 DSS; drug sensitivity score [7, 18]: 9.3 ± 2.1 DSS; drug sensitivity score [7, 19]: 6.63 ± 3.8 DSS; drug sensitivity score [7, 20]: 6.5 ± 3.7 DSS; drug sensitivity score [7, 21]: 3.43 ± 1.8 DSS; drug sensitivity score [7, 22]: 2.23 ± 1.9 DSS; drug sensitivity score [8, 18]: 11 ± 1 DSS; drug sensitivity score [8, 19]: 10.3 ± 2.3 DSS; drug sensitivity score [8, 20]: 10.1 ± 1.1 DSS; drug sensitivity score [8, 21]: 6.67 ± 1.4 DSS; drug sensitivity score [8, 22]: 13.8 ± 0.95 DSS; drug sensitivity score [9, 18]: 5.9 ± 1.1 DSS; drug sensitivity score [9, 19]: 3.83 ± 3.9 DSS; drug sensitivity score [9, 20]: 7.33 ± 3.5 DSS; drug sensitivity score [9, 22]: 4.33 ± 1.3 DSS; drug sensitivity score [10, 18]: 18.4 ± 4.2 DSS; drug sensitivity score [10, 19]: 13.4 ± 2.6 DSS; drug sensitivity score [10, 20]: 15.7 ± 2.8 DSS; drug sensitivity score [10, 21]: 10.9 ± 1.8 DSS; drug sensitivity score [10, 22]: 11.3 ± 3.5 DSS; drug sensitivity score [11, 18]: 7.6 ± 5.4 DSS; drug sensitivity score [11, 19]: 2.57 ± 2.8 DSS; drug sensitivity score [11, 20]: 10.5 ± 0.9 DSS; drug sensitivity score [11, 21]: 6.97 ± 0.8 DSS; drug sensitivity score [11, 22]: 5.87 ± 3.6 DSS; drug sensitivity score [12, 18]: 17.6 ± 2.3 DSS; drug sensitivity score [12, 20]: 9.67 ± 0.84 DSS; drug sensitivity score [12, 21]: 1.4 ± 1.4 DSS; drug sensitivity score [12, 22]: 3.77 ± 2.9 DSS; drug sensitivity score [13, 18]: 18.2 ± 0.7 DSS; drug sensitivity score [13, 19]: 4.27 ± 1.7 DSS; drug sensitivity score [13, 20]: 12.5 ± 1.8 DSS; drug sensitivity score [13, 21]: 5.07 ± 3.6 DSS; drug sensitivity score [13, 22]: 10.2 ± 1.6 DSS; drug sensitivity score [14, 18]: 19.8 ± 3.1 DSS; drug sensitivity score [14, 19]: 15.4 ± 3.3 DSS; drug sensitivity score [14, 20]: 18.7 ± 3.7 DSS; drug sensitivity score [14, 21]: 14.6 ± 1.9 DSS; drug sensitivity score [14, 22]: 16.1 ± 3.1 DSS; drug sensitivity score [15, 18]: 31.1 ± 6 DSS; drug sensitivity score [15, 19]: 3.93 ± 0.58 DSS; drug sensitivity score [15, 20]: 18.2 ± 2.1 DSS; drug sensitivity score [15, 21]: 4.77 ± 4 DSS; drug sensitivity score [15, 22]: 7.57 ± 2.1 DSS; drug sensitivity score [16, 18]: 9.37 ± 3.3 DSS; drug sensitivity score [16, 19]: 3.9 ± 6.8 DSS; drug sensitivity score [16, 20]: 6.63 ± 5 DSS; drug sensitivity score [16, 21]: 4.7 ± 4 DSS; drug sensitivity score [16, 22]: 4.93 ± 4 DSS; relative IC50 [17, 18]: 1.4 nM; relative IC50 [17, 20]: 1.34 nM; relative IC50 [17, 22]: 1.07 nM
